The results in this text go back to ChEMBL document CHEMBL1136027, “Design, synthesis and structure-activity relationships of novel imidazolo[1,2-a]pyrimid-5-ones as potent GnRH receptor antagonists” (Bioorg Med Chem Lett, 2002).

Tested on in one data set: not listed separately
Put plainly: Half-life in rat plasma was determined.
Settings: not given; call rule not given here
It counts as ADME, organism-based.
With `CCC(CC)OC(=O)c1cn(Cc2ccccc2F)c2cc(-c3ccc(NC(C)=O)cc3)c(CN(C)CCc3ccccn3)n2c1=O`, the half-life came out at 28 min.

For the next data set, the target named is T1, Gonadotropin-releasing hormone receptor (Homo sapiens, UniProt P30968).
T1 sequence (P30968 whole entry): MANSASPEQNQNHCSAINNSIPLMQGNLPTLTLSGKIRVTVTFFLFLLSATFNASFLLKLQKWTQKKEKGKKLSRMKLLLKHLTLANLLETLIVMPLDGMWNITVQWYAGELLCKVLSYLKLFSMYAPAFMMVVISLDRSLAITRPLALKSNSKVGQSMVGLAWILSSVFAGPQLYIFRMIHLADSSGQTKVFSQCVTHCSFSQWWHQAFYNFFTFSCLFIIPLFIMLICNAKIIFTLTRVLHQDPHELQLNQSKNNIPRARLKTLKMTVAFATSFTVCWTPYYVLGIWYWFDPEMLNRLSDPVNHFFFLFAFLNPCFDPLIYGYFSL
Put plainly: Binding evaluated in cloned human Gonadotropin-releasing hormone receptor by displacement of [125 I-Tyr, DLeu, NMeLeu, Pro-NEt]GnRH agonist.
Settings: not given
Turning to `COc1ccc(-c2nc3n(Cc4ccccc4F)c(C)c(-c4ccc5c(c4)OCO5)c(=O)n3c2CN(C)C2CCN(C)CC2)cc1`, the Ki entry is “Not Active”.

Still in this data set, the particulars now being: read-out: Ki.
Take `COc1ccc(-c2nc3n(Cc4ccccc4F)c(C)c(-c4ccc(OC)cc4)c(=O)n3c2CN(C)CCc2ccccn2)cc1`: the Ki is 0.018 µM.

For `COc1ccc(-c2nc3n(Cc4ccccc4F)c(C)c(-c4ccc5c(c4)OCO5)c(=O)n3c2CN(C)CCc2ccccc2F)cc1`, the Ki stood at 0.067 µM.

Turning to `COc1ccc(-c2nc3n(Cc4ccccc4F)c(C)c(-c4ccc5c(c4)OCO5)c(=O)n3c2CN2CCCN(C)CC2)cc1`, the Ki was 9.5 µM.

For the compound `COc1ccc(-c2nc3n(Cc4ccccc4F)c(C)c(-c4cccc(F)c4)c(=O)n3c2CN(C)CCc2ccccn2)cc1`, the Ki came to 0.079 µM.

For the compound `CCC(CC)OC(=O)c1cn(Cc2ccccc2F)c2nc(-c3ccc(OC)cc3)c(CN(C)CCc3ccccn3)n2c1=O`, the Ki stood at 0.23 µM.

Turning to `COc1ccc(-c2nc3n(Cc4ccccc4F)c(C)c(-c4ccc5c(c4)OCO5)c(=O)n3c2CN(C)Cc2ccccc2)cc1`, the Ki is 0.047 µM.

Turning to `COc1ccc(-c2nc3n(Cc4ccccc4F)c(C)c(-c4cccc(S)c4)c(=O)n3c2CN(C)CCc2ccccn2)cc1`, the Ki worked out at 0.056 µM.

Regarding `COCCN(C)Cc1c(-c2ccc(OC)cc2)nc2n(Cc3ccccc3F)c(C)c(-c3ccc4c(c3)OCO4)c(=O)n12`, the Ki was 0.15 µM.

On to `COc1ccc(-c2nc3n(Cc4ccccc4F)c(C)c(-c4cccc(OC)c4)c(=O)n3c2CN(C)CCc2ccccn2)cc1`, for which the Ki was 0.0046 µM.

Regarding `COc1ccc(-c2nc3n(Cc4ccccc4F)c(C)c(-c4ccccc4OC)c(=O)n3c2CN(C)CCc2ccccn2)cc1`, the Ki was 0.065 µM.

In the case of `COc1ccc(-c2nc3n(Cc4ccccc4F)c(C)c(-c4ccc5c(c4)OCO5)c(=O)n3c2CN(C)CCc2ccncc2)cc1`, the Ki turned out to be 1.4 µM.

Turning to `COc1ccc(-c2nc3n(Cc4ccccc4F)c(C)c(-c4cc(OC)c(OC)c(OC)c4)c(=O)n3c2CN(C)CCc2ccccn2)cc1`, the Ki was 0.37 µM.

With `COc1ccc(-c2nc3n(Cc4ccccc4F)c(C)c(-c4ccc5c(c4)OCO5)c(=O)n3c2CN(C)CCc2ccccn2)cc1`, the Ki came out at 0.011 µM.

With `COc1ccc(-c2nc3n(Cc4ccccc4F)c(C)c(Br)c(=O)n3c2CN(C)CCc2ccccn2)cc1`, the Ki was determined as 2.5 µM.

As for `CCN(CC)CCN(C)Cc1c(-c2ccc(OC)cc2)nc2n(Cc3ccccc3F)c(C)c(-c3ccc4c(c3)OCO4)c(=O)n12`, the Ki came to 0.13 µM.

Regarding `COc1ccc(-c2nc3n(Cc4ccccc4F)c(C)c(-c4ccc5c(c4)OCO5)c(=O)n3c2CN(C)CCc2ccccc2)cc1`, the Ki came out at 0.11 µM.

On to `CCCCN(C)Cc1c(-c2ccc(OC)cc2)nc2n(Cc3ccccc3F)c(C)c(-c3ccc4c(c3)OCO4)c(=O)n12`, for which the Ki amounted to 0.22 µM.

With `COc1ccc(-c2nc3n(Cc4ccccc4F)c(C)c(-c4cccc(C(F)(F)F)c4)c(=O)n3c2CN(C)CCc2ccccn2)cc1`, the Ki amounted to 0.14 µM.

For the compound `COc1ccc(-c2nc3n(Cc4ccccc4F)c(C)c(-c4ccc5c(c4)OCO5)c(=O)n3c2CN2CCOCC2)cc1`, the Ki was 28 µM.

For the compound `COc1ccc(-c2nc3n(Cc4ccccc4F)c(C)c(-c4ccc(OC)c(OC)c4)c(=O)n3c2CN(C)CCc2ccccn2)cc1`, the Ki was found to be 0.11 µM.

With `COc1ccc(-c2nc3n(Cc4ccccc4F)c(C)c(-c4cc(Cl)cc(Cl)c4)c(=O)n3c2CN(C)CCc2ccccn2)cc1`, the Ki was determined as 0.1 µM.

For orientation: half-life means the time in which the quantity being followed falls by half. Broadly, the Ki is the equilibrium dissociation constant of an inhibitor or competing ligand from its target.
